{
  "source": "patent US10322114B2",
  "about": "(Above and Beyond NB LLC, priority 2017, dated 2019)",
  "key": {"[1]": {"conditions": "oral 1.3 mg/kg BID 14 days versus IT 0.25 mg/hour 5 days, higher in oral"}},
  "from_the_text": "Animals were then sacrificed and a necropsy was immediately performed.\nAfter stopping the 5-day treatment, animals were sacrificed and a necropsy was immediately performed. […] One hour after stopping the 14-day treatment, animals were sacrificed and a necropsy was immediately performed.\nAnimals were then sacrificed and a necropsy was immediately performed. […] Animals were then sacrificed and a necropsy was immediately performed.",
  "data": [
    {"compound": "Nc1nc2ccc(OC(F)(F)F)cc2s1", "note": "[Riluzole, 2-Amino-6-(trifluoromethoxy)benzothiazole]", "values": [
      {"measurement": "riluzole accumulation in the spinal cord, IT-treated compared to oral-treated dogs", "setting": "IT 0.25 mg/hour 5 days versus oral 1.3 mg/kg BID 14 days, higher in IT", "value": "approximately 4 fold"},
      {"measurement": "riluzole level in CSF, oral-treated compared to IT-treated dogs", "setting": "oral 1.3 mg/kg BID 14 days versus IT 0.25 mg/hour 5 days", "value": "similar"},
      {"measurement": "riluzole level in plasma, oral-treated compared to IT-treated dogs", "setting": "[1]", "value": "approximately 20 fold"},
      {"measurement": "riluzole level in urine, oral-treated compared to IT-treated dogs", "setting": "[1]", "value": "approximately 3 fold"}
    ]}
  ]
}
